Literature values in patent US4303671A, “Albumin stabilized prostacyclin” (priority 1980, dated 1981).

Key:
[1] = under acid conditions, including at physiological pH's
[2] = test system: blood platelet aggregation; settings: at the time of its discovery
[3] = human plasma and human serum albumin; FASEB Meeting abstract, 1980
[4] = kept in whole blood or plasma; The Lancet, July 29, 1978
[5] = FEBS Letters 82:321-324 (1977)

Structure (SMILES) | chemical stability (in words) [1] | potency to inhibit blood platelet aggregation (in words) [2] | stabilization by albumin (in words) [3] | protection against degradation (in words) [4] | stabilization of thromboxane A2 by albumin (in words) [5]
CCCCC[C@H](O)/C=C/[C@@H]1[C@H]2C/C(=C/CCCC(=O)O)O[C@H]2C[C@H]1O [prostacyclin, 9-deoxy-6,9α-epoxy-(5Z)-5,6-didehydro-PGF1] | spontaneously decomposes to 6-oxo-PGF1α | most potent prostaglandin-related substance effective to inhibit blood platelet aggregation | albumin stabilizes prostacyclin | probably protected against degradation when kept in whole blood or plasma | 
CCCCC[C@H](O)/C=C/[C@H]1O[C@H]2C[C@H](O2)[C@@H]1C/C=C\CCCC(=O)O [thromboxane A2] |  |  |  |  | ability to stabilize thromboxane A2
